This data set in a line: Human HepG2 cell viability assay in 384 well format. The format is toxicity, cell-based. Set-up: dose 125 nL, time 70.5 hour; concentration not given beside the values. The settings on record: HepG2 cells, read-out: Inhibition.
Take `CN1CCN(C(=O)c2cccc(OCc3cscn3)c2)CC1`: the cytotoxicity at 70.5 h amounted to 4.86%.
On to `O=C(c1ccc(Cn2cnnn2)cc1)N1CCC(c2ccncc2)CC1`, for which the cytotoxicity at 70.5 h is -3.04%.
The same measure for `Cc1oc(C(=O)O)cc1S(=O)(=O)Nc1ccc(Cl)c(Cl)c1`: -3.75%; for `Cc1nc(C)n(CC2CCCN(Cc3nnc(C4CC4)o3)C2)n1` (centres undefined): -7.21%; for `Cc1nc2ccccc2nc1CN1CCn2nc(CCC(=O)O)cc2C1`: -7.38%.
In the case of `COC(=O)CCN1CCC(C(=O)c2cc(F)ccc2F)CC1` it was -12.5%.
In the case of `Cc1nc(CN2CCCC(NCc3sccc3C)C2)no1` (centres undefined) it was -2.7%; in that of `CCN1CCC(N2C[C@@H](C(=O)O)[C@H](c3cccc(OC)c3)C2)CC1`, -0.816%; in that of `O=C(O)c1cc(S(=O)(=O)Nc2ccc(Cl)cc2)cc2c1OCCO2`, -10.1%.
Consider `CCC(O)CN1CCN(C(=O)CCc2c(C)noc2Cl)CC1` (centres undefined), for which the cytotoxicity at 70.5 h was -12.7%.
In the case of `O=S(=O)(c1c(F)cccc1F)N1CCCC1c1nnc2n1CCCCC2` (centres undefined), the cytotoxicity at 70.5 h is -12.1%.
Turning to `Cc1ccc(N2CCCC(NCc3ccncc3)C2)nn1` (centres undefined), the cytotoxicity at 70.5 h is 11.6%.
As to `CN(CC(=O)N(CCC#N)c1ccccc1)C1CCc2ccccc21` (centres undefined), the cytotoxicity at 70.5 h was determined as 5.13%.
In the case of `CO[C@H]1CCN(C2CCOCC2)C[C@@H]1Cc1ccccc1` it was -7.39%.
In the case of `CCN(CC)CC1CCN(Cc2ncc(C(C)(C)C)o2)CC1` it was 1.11%; in that of `CCC(=O)N1CCc2onc(CNS(C)(=O)=O)c2C1`, 9.89%; in that of `O=c1[nH]nc2nc(N3CCSCC3)ccn12`, 0.517%.
The same measure for `CC(=O)N1CCOC(Cc2cccc(C(F)(F)F)c2)C1` (centres undefined): -4.91%.
On to `Cc1ccc(CN2C(=O)CC[C@]23CC[C@@H](NC2CCOC2)CC3)cc1` (some centres undefined), for which the cytotoxicity at 70.5 h is -1.41%.
The same measure for `O=C(Cc1ccccc1)C1CCCN(Cc2cncn2C2CCCC2)C1` (centres undefined): -7.77%; for `Cc1nc(C)c(C(=O)N2CCc3c(C)cccc32)o1`: -5.23%.
The same measure for `COC(=O)C(C)(C)S(=O)(=O)c1ccc(Br)cc1`: -1.38%; for `Cc1cnc(N2CCC(c3ccncc3)CC2)nc1-c1ccnn1C`: -12.9%; for `OCC1CCCCN1CCCNCc1cc(O)c2cc(F)ccc2n1` (centres undefined): -4.1%.
As to `CN(C)S(=O)(=O)N1CC[C@]2(O)CCN(Cc3cccc(F)c3)C[C@@H]2C1`, the cytotoxicity at 70.5 h is -6.74%.
For the compound `NC(=O)c1ccc(OCC(=O)N2CCCC2c2ccc[nH]2)cc1` (centres undefined), the cytotoxicity at 70.5 h was found to be 42.3%.
The same measure for `O=C(c1ccccn1)N1CCC(c2nccn2Cc2ccncc2)CC1`: -14.4%.
In the case of `CCn1c(C)nnc1SCCNC(=O)c1sc(C(C)C)nc1C`, the cytotoxicity at 70.5 h is -7.2%.
The same measure for `CN(C)C1CCN(c2cc(-c3ccccc3)nc3ccnn23)C1` (centres undefined): 5.02%.
With `CC1CCC(O)(CSc2nnnn2C2CC2)CC1` (centres undefined), the cytotoxicity at 70.5 h is -1.68%.
Consider `CC(C)c1sc(Cl)nc1C(=O)N1CCN(c2ccccn2)CC1`, for which the cytotoxicity at 70.5 h worked out at 29.7%.
In the case of `Cc1csc(C2CCCCN2C(=O)c2cc(C(C)C)[nH]n2)n1` (centres undefined) it was 1.99%; in that of `CN(C)C(=O)CC1CC2(CCN(c3ncccn3)CC2)c2ccccc21` (centres undefined), -0.293%.
The same measure for `COc1ccc(F)cc1S(=O)(=O)NCC(c1cccn1C)N(C)C` (centres undefined): -1.76%; for `OC1(Cn2ccc3ncccc32)CCN(Cc2cccs2)CC1`: -0.455%; for `Cc1nc2ccccn2c1CN(Cc1cccnc1)CC1CCCO1` (centres undefined): 0.351%.
In the case of `Cc1nccn1-c1cccc(C2CCCN(C3CCCCC3)C2)n1` (centres undefined) it was 2.4%; in that of `NC(=O)c1csc(N2CCCC(c3nc4ccccc4[nH]3)C2)n1` (centres undefined), -2.59%.
`CN(CCNC(=O)NCc1ccncc1)C1CCCC1`: the cytotoxicity at 70.5 h is -18%.
The same measure for `Cn1nccc1C(=O)N1CCOC(Cc2ccc(F)cc2)C1` (centres undefined): -3.53%; for `CC(C)N1CCN(C)C2(CCN(C(=O)c3ccnnc3)CC2)C1=O`: -4.95%.
With `Fc1ccc(CN2CCCC3(CCN(Cc4ncc[nH]4)C3)C2)cc1F` (centres undefined), the cytotoxicity at 70.5 h is -0.549%.
Take `CN(C)c1nc(CNC(=O)NC2CCc3ccccc32)cs1` (centres undefined): the cytotoxicity at 70.5 h was -0.66%.
The same measure for `O=C(CNC(=O)c1ccccc1Cl)Nc1nccs1`: 1.89%; for `CCc1cnc(N2CCC3(CCN(CC)C3=O)CC2)nc1`: -4.14%.
The same measure for `c1cc(C2CCN(Cc3ccc4c(c3)OCO4)CC2)ccn1`: -2.31%.
In the case of `CC(C)(C)c1n[nH]c(C2CN(Cc3ncc[nH]3)CCO2)n1` (centres undefined) it was -0.788%; in that of `O=C(Cc1c[nH]c2ccccc12)NCC1CCN(Cc2c[nH]cn2)C1` (centres undefined), -6.01%.
In the case of `O=C(c1ccccn1)N1C[C@@H]2CC[C@H](C1)N(C(=O)c1ccsc1)C2`, the cytotoxicity at 70.5 h was 26.5%.
`Cc1nc(N(C)C)ncc1C(=O)N[C@@H]1CCc2ccccc21`: the cytotoxicity at 70.5 h is -11.5%.
Turning to `Cn1cccc1C1CCCN1C(=O)NCCCn1cccn1` (centres undefined), the cytotoxicity at 70.5 h is -7.92%.
In the case of `CC(C)COCC1CN(Cc2ccc3c(c2)OCO3)Cc2ncn(C)c21` (centres undefined), the cytotoxicity at 70.5 h stood at 45.7%.
Take `CNC(=O)N1CCC2(CC1)c1ncc(C)n1CCN2C`: the cytotoxicity at 70.5 h is -0.582%.
In the case of `COCCCSc1ccc(NC(=O)Nc2cn[nH]c2)cc1` it was 18.2%.
In the case of `O=C(CO)N1CC[C@@H](N2CCN(c3ccccc3F)CC2)[C@H](O)C1` it was 6.39%; in that of `Cc1nc(N2CCC3(CCCN(CC4CC4)C3=O)C2)c2sccc2n1` (centres undefined), 0.2%.
In the case of `CC(C)N(CCO)C(=O)C1CCC(=O)N(CCc2cccc(F)c2)C1` (centres undefined) it was -10%; in that of `Cc1nc(NCCc2ccc(Cl)cc2)cc(C(=O)N2CCOCC2)n1`, -7.59%.
`CC(c1c(F)cccc1F)N1CCN(Cc2nccn2C)CC1` (centres undefined): the cytotoxicity at 70.5 h came to 24.5%.
As for `O=C(c1ccncc1)N1CCOC2(COCCN(c3cccnc3)C2)C1` (centres undefined), the cytotoxicity at 70.5 h was -8.51%.
Consider `CC(C)(C)c1c[nH]c([C@@H]2COCCN2C2CCNCC2)n1`, for which the cytotoxicity at 70.5 h is -0.308%.
In the case of `Cc1c(C(=O)N2CCCC(n3nnc4cc(F)ccc43)C2)cnn1C` (centres undefined) it was -14.1%; in that of `COc1ccc(-n2ncc(C(=O)NCC3COC(C)(C)O3)c2N)cc1` (centres undefined), -5.98%.
Consider `CCn1c(Cn2cncn2)nnc1C1CCN(Cc2ccncc2)CC1`, for which the cytotoxicity at 70.5 h was -6.34%.
The same measure for `Cc1nc(COc2ccc(S(=O)(=O)N(C)C)cc2)sc1C`: -24.1%.
In the case of `O=C(CCC1CCCC1)NCCn1nc(C2CCNC2)c2nccnc21` (centres undefined) it was 34.9%.
The same measure for `CCC(C)NC(=O)Nc1cccc(OCCCC#N)c1` (centres undefined): -8.47%; for `O=C(NCc1ccccc1F)Nc1ccn(CCN2CCOCC2)n1`: -15.3%; for `CC(=O)N(C)c1nc(CN2CCOC(Cn3cc(C)cn3)C2)cs1` (centres undefined): 13.6%.
With `Cn1ncc2c(=O)[nH]c(CN3CCCC3CC(C)(C)C)nc21` (centres undefined), the cytotoxicity at 70.5 h was -4%.
In the case of `CCCC(O)CN1CCC(=O)N(CCOC)Cc2ccccc21` (centres undefined) it was -10.1%.
In the case of `CCCc1nc(C(C)(C)NC(=O)C2CC(=O)N(C3CC3)C2)no1` (centres undefined) it was -6.42%; in that of `CC(NC(=O)COc1ccccc1Cl)c1nnc2n1CCC2` (centres undefined), -6.92%; in that of `c1ccc(-c2nc3c(c(NCc4n[nH]c5c4CCC5)n2)CCNC3)cc1`, 12.6%.
The same measure for `Cc1ccc(-c2noc(C3CCN3C(=O)c3ccn(C)n3)n2)s1` (centres undefined): 1.02%; for `CCN(CC)c1ccc(NS(=O)(=O)c2cnn(C)c2)cn1`: -2.05%; for `CNc1ncccc1C(=O)N1CCCC2(CCN(C)CC2)CC1`: -1.7%.
As to `CNC(=O)c1nnn(-c2ccccc2F)c1-c1ccccn1`, the cytotoxicity at 70.5 h turned out to be 0.41%.
On to `CCCn1ccnc1CN1CC[C@@H](NC(=O)c2cccnc2)[C@H](O)C1`, for which the cytotoxicity at 70.5 h was -16.3%.
With `c1cc(CN2CCCC2)ccc1CNc1cncc2nnnn12`, the cytotoxicity at 70.5 h is -4.34%.
In the case of `CC(C)CCNC(=O)CCc1ccnc2ccccc12` it was -14.4%; in that of `CCc1ncc(CNC2CC(=O)N(CCc3cccc(Cl)c3)C2)cn1` (centres undefined), -4.07%.
`CC(C)NC(=O)C1CN(Cc2ccsc2)Cc2ccnn2C1` (centres undefined): the cytotoxicity at 70.5 h was determined as 1.63%.
For `CC(C)(C)c1cc(CN2C[C@H]3CC[C@@H]2CN(Cc2ccccn2)C3)n[nH]1`, the cytotoxicity at 70.5 h is -5.84%.
On to `Cn1cc(CN2CCCC(CCCc3ccccn3)(C(N)=O)C2)cn1` (centres undefined), for which the cytotoxicity at 70.5 h was -8.02%.
On to `CCCc1nnc(N2CCN(c3ccccc3F)CC2)o1`, for which the cytotoxicity at 70.5 h stood at 13.5%.
In the case of `CCC1CN(C(=O)c2ncccc2O)CCC(=O)N1Cc1ccccc1` (centres undefined) it was -0.966%; in that of `Cc1cccnc1NC(=O)C1CCCN1Cc1ccccc1` (centres undefined), 8.68%.
Take `CC(=O)NCc1nnc2n1CCN(c1ncnc3c(C)csc13)CC2`: the cytotoxicity at 70.5 h was determined as 27%.
In the case of `CCc1noc(CN(CC)C(=O)CC2C(=O)NCCN2CC(C)(C)C)n1` (centres undefined) it was 0.786%.
The same measure for `CCOc1ncnc2c1CCN(S(=O)(=O)c1ccccc1)CC2`: -14.4%.
The same measure for `COCc1noc(C2(c3ccc(F)cc3)CCC2)n1`: -0.0433%; for `CC(NC(=O)COC1CCCC1)c1nc(-c2ccccc2)c[nH]1` (centres undefined): -1.37%; for `Cn1cnnc1CNC(=O)c1ccc(Br)cc1O`: -3.54%.
Take `O=C(Nc1ccccc1)[C@H]1C[C@@H]2CN(S(=O)(=O)c3ccccc3)C[C@H]1O2`: the cytotoxicity at 70.5 h is -10.9%.
With `CN(CC1CCC1)C(=O)c1ccc(-c2nc(C3CC3)n[nH]2)cc1`, the cytotoxicity at 70.5 h is -8.67%.
In the case of `Cn1c(=O)c2c(c3ccccc31)OC(C)(C)CC2` it was -9.34%; in that of `Cc1occc1C(=O)N1CCC[C@]2(C[C@@H](OCc3ccncc3)CO2)C1`, 6.49%; in that of `CCNc1ncc(C(=O)N2CCOC(CCCc3ccccc3)C2)cn1` (centres undefined), 14.5%.

The record behind these values is ChEMBL document CHEMBL3507680, “University of Dundee, Gates Library screen for HepG2 cell viability”.
